In one assay the target is GDP-loaded KRAS G12D (Homo sapiens, UniProt P01116, G12D). In words: KRAS G12D (GDP) Biochemical Assay (TR-FRET probe displacement). It is filed as binding. Conditions: 0.5 nM enzyme, 2 hours at room temperature. The procedure:
Example A. KRAS G12D (GDP) Biochemical Assay
Compounds were tested for binding to GDP-loaded KRAS G12D in a 384-well assay format using a TR-FRET probe displacement assay in buffer consisting of 50 mM Hepes (pH 7.4), 150 mM NaCl, 5 mM MgCl2 and 0.005% Tween-20. […] Compounds were serially diluted (1:3) in DMSO. The LabCyte ECHO Acoustic dispenser system was used to pre-spot the assay plates (384-well Non-Binding Surface plates, Corning, Catalog #3824) with 50 nL of compound. The compounds were pre-incubated with 5 μL of 2× final enzyme concentration for 30 minutes before adding 5 μL of 2× final concentration of Eu-streptavidin and TR-FRET probe (10 μL final reaction volume). The plates were incubated at room temperature for 2 hours before measuring TR-FRET ratio on the Envision plate reader. IC50 values were defined as the compound concentration that causes a 50% decrease in TR-FRET ratio and were calculated using a sigmoidal dose-response model to generate curve fits.

The next assay deals with GP2D (KRAS G12D) cells. In words: 2D Cell Viability Assay (CellTiter-Glo). It is filed as cell-based. As to conditions: 4 days, CellTiter-Glo luminescence. The procedure: Example B. 2D Cell Viability Assay
Compounds were tested in a 384-well format for their ability to inhibit the viability of GP2D (KRAS G12D) cells in 2D assays. Compounds were serially diluted (1:3) in DMSO. The LabCyte ECHO Acoustic dispenser system was used to pre-spot assay plates with 200 nL of test molecule per well. 1000 cells/well (40 μL volume per well) in RPMI medium with 10% FBS, and Penicillin-Streptomycin-Glutamine were plated in pre-spotted 384-well plates (Greiner, Catalog #781076) on the BioTEK EL406 liquid dispenser with a 5 μL dispensing cassette (BioTek 7170011). The plates were incubated at 37° C., 5% CO2 for 4 days before addition of CellTiter-Glo (CTG) reagent and measurement of luminescence signal. EC50 values were defined as the compound concentration that causes a 50% decrease in luminescence signal and were calculated using a sigmoidal dose-response model to generate curve fits.
A general note: ATP-based viability assays read luminescence as a measure of living cells.

Sequence of GDP-loaded KRAS G12D (P01116 1-188 isoform P01116-2 G12D): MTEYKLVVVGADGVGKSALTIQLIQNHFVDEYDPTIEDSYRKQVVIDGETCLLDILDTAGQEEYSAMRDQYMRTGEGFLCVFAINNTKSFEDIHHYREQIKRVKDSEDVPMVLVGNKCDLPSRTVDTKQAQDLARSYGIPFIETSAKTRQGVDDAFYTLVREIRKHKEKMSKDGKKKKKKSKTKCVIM

In general, IC50 refers to the midpoint of a concentration-inhibition curve. As usually defined, the EC50 is the concentration at which the effect is half-maximal. High values mean a need for much substance, low ones an effect from little substance. Regarding `N#Cc1c(N)sc2c(F)ccc(-c3c(F)c4c5c(nc(OC[C@@]67CCCN6C[C@H](F)C7)nc5c3F)N3C[C@H]5CC[C@H](N5)[C@H]3CC4)c12` (single isomer, unassigned) [Example 59], the IC50 at GDP-loaded KRAS G12D turned out to be 4.2 nM. The compound further had a 50% effective concentration (EC50) with GP2D (KRAS G12D) cells of 24 nM.

In the case of `N#Cc1c(N)sc2c(F)ccc(-c3c(F)c4c5c(nc(OC[C@@]67CCCN6C[C@H](F)C7)nc5c3F)N3C[C@H]5CC[C@H](N5)[C@H]3CC4)c12` (single isomer, unassigned) [Example 60], at GDP-loaded KRAS G12D, the half-maximal inhibitory concentration (IC50) came out at 0.03 nM. The same compound displayed a concentration for a half-maximal effect (EC50) in the assay with GP2D (KRAS G12D) cells of 1.8 nM.

As to `Cc1cc(N)nc(-c2nc3c4c(nc(OC[C@@]56CCCN5C[C@H](F)C6)nc4c2F)N2C[C@H]4CC[C@H](N4)[C@H]2CC3)c1C(F)(F)F` [Example 1, 6-((5aR,6S,9R)-1-fluoro-12-(((2R,7aS)-2-fluorotetrahydro-1H-pyrrolizin-7a(5H)-yl)methoxy)-4,5,5a,6,7,8,9,10-octahydro-3,10a,11,13,14-pentaaza-6,9-methanonaphtho[1,8-ab]heptalen-2-yl)-4-methyl-5-(trifluoromethyl)pyridin-2-amine], the IC50 at GDP-loaded KRAS G12D was 0.84 nM. This compound yielded an EC50 in the assay on GP2D (KRAS G12D) cells (GP2d, 96 h) of 16 nM.

For `Cc1cc(N)nc(-c2nc3c4c(nc(OC[C@@]56CCCN5C[C@H](F)C6)nc4c2F)N2C[C@H]4CC[C@H](N4)[C@@H]2CC3)c1C(F)(F)F` [Example 4, 6-((5aS,6S,9R)-1-fluoro-12-(((2R,7aS)-2-fluorotetrahydro-1H-pyrrolizin-7a(5H)-yl)methoxy)-4,5,5a,6,7,8,9,10-octahydro-3,10a,11,13,14-pentaaza-6,9-methanonaphtho[1,8-ab]heptalen-2-yl)-4-methyl-5-(trifluoromethyl)pyridin-2-amine], the IC50 at GDP-loaded KRAS G12D amounted to 62 nM. In the assay on GP2D (KRAS G12D) cells (GP2d, 96 h), this compound came in with an EC50 of over 100 nM.

With `Cc1cc(N)nc(-c2nc3c4c(nc(OC[C@@]56CCCN5C[C@H](F)C6)nc4c2F)N2C[C@H]4CC[C@H](N4)[C@H]2CCC3)c1C(F)(F)F` [Example 7, 6-((6aR,7S,10R)-1-fluoro-13-(((2R,7aS)-2-fluorotetrahydro-1H-pyrrolizin-7a(5H)-yl)methoxy)-5,6,6a,7,8,9,10,11-octahydro-4H-3,11a,12,14,15-pentaaza-7,10-methanocyclohepta[4,5]cycloocta[1,2,3-de]naphthalen-2-yl)-4-methyl-5-(trifluoromethyl)pyridin-2-amine], the IC50 on GDP-loaded KRAS G12D was 0.7 nM. The compound also displayed an EC50 with GP2D (KRAS G12D) cells (GP2d, 96 h) of 11 nM.

As for `Cc1cc(N)[n+]([O-])c(-c2nc3c4c(nc(OC[C@@]56CCCN5C[C@H](F)C6)nc4c2F)N2C[C@H]4CC[C@H](N4)[C@H]2CCC3)c1C(F)(F)F` [Example 8, 6-amino-2-((6aR,7S,10R)-1-fluoro-13-(((2R,7aS)-2-fluorotetrahydro-1H-pyrrolizin-7a(5H)-yl)methoxy)-5,6,6a,7,8,9,10,11-octahydro-4H-3,11a,12,14,15-pentaaza-7,10-methanocyclohepta[4,5]cycloocta[1,2,3-de]naphthalen-2-yl)-4-methyl-3-(trifluoromethyl)pyridine 1-oxide], the half-maximal inhibitory concentration (IC50) on GDP-loaded KRAS G12D was over 100 nM. In the assay on GP2D (KRAS G12D) cells (GP2d, 96 h), this compound came in with a half-maximal effective concentration (EC50) of over 100 nM.

With `Cc1cc(N)nc(-c2cc3c4c(nc(OC[C@@]56CCCN5C[C@H](F)C6)nc4c2F)N2C[C@H]4CC[C@H](N4)[C@H]2CC3)c1C(F)(F)F` [Example 9, 6-((1S,4R,14aR)-10-fluoro-8-(((2R,7aS)-2-fluorotetrahydro-1H-pyrrolizin-7a(5H)-yl)methoxy)-1,2,3,4,5,13,14,14a-octahydro-1,4-epiminoazepino[1′,2′:1,7]azepino[2,3,4-de]quinazolin-11-yl)-4-methyl-5-(trifluoromethyl)pyridin-2-amine], on GDP-loaded KRAS G12D, the IC50 is 2.5 nM. A half-maximal response with GP2D (KRAS G12D) cells (GP2d, 96 h) (EC50) required 37 nM.

As for `Cc1cc(N)nc(-c2c(C)c3c4c(nc(OC[C@@]56CCCN5C[C@H](F)C6)nc4c2F)N2C[C@H]4CC[C@H](N4)[C@H]2CC3)c1C(F)(F)F` [Example 10, 6-((1S,4R,14aR)-10-fluoro-8-(((2R,7aS)-2-fluorotetrahydro-1H-pyrrolizin-7a(5H)-yl)methoxy)-12-methyl-1,2,3,4,5,13,14,14a-octahydro-1,4-epiminoazepino[1′,2′:1,7]azepino[2,3,4-de]quinazolin-11-yl)-4-methyl-5-(trifluoromethyl)pyridin-2-amine], the IC50 on GDP-loaded KRAS G12D came out at 0.29 nM. This compound also registered a half-maximal effective concentration (EC50) with GP2D (KRAS G12D) cells (GP2d, 96 h) of 10 nM.

`Cc1c(F)c(N)nc(-c2nc3c4c(nc(OC[C@@]56CCCN5C[C@H](F)C6)nc4c2F)N2C[C@H]4CC[C@H](N4)[C@H]2CCC3)c1C(F)(F)F` [Example 11, 3-fluoro-6-((6aR,7S,10R)-1-fluoro-13-(((2R,7aS)-2-fluorotetrahydro-1H-pyrrolizin-7a(5H)-yl)methoxy)-5,6,6a,7,8,9,10,11-octahydro-4H-3,11a,12,14,15-pentaaza-7,10-methanocyclohepta[4,5]cycloocta[1,2,3-de]naphthalen-2-yl)-4-methyl-5-(trifluoromethyl)pyridin-2-amine] had an IC50 on GDP-loaded KRAS G12D of 12 nM. Moreover, the EC50 with GP2D (KRAS G12D) cells (GP2d, 96 h) turned out to be 34 nM.

As to `N#Cc1c(N)sc2cccc(-c3nc4c5c(nc(OC[C@@]67CCCN6C[C@H](F)C7)nc5c3F)N3C[C@H]5CC[C@H](N5)[C@H]3CCC4)c12` [Example 12, 2-amino-4-((6aR,7S,10R)-1-fluoro-13-(((2R,7aS)-2-fluorotetrahydro-1H-pyrrolizin-7a(5H)-yl)methoxy)-5,6,6a,7,8,9,10,11-octahydro-4H-3,11a,12,14,15-pentaaza-7,10-methanocyclohepta[4,5]cycloocta[1,2,3-de]naphthalen-2-yl)benzo[b]thiophene-3-carbonitrile], the 50% inhibitory concentration (IC50) at GDP-loaded KRAS G12D was determined as 0.17 nM. Further, in the assay with GP2D (KRAS G12D) cells (GP2d, 96 h), the midpoint of the response, the EC50, lay at 3.5 nM.

As for `C[C@H]1Cc2nc(-c3cccc4sc(N)c(C#N)c34)c(F)c3nc(OC[C@@]45CCCN4C[C@H](F)C5)nc(c23)N2C[C@H]3CC[C@H](N3)[C@H]12` [Example 13, 2-amino-4-((5S,5aS,6S,9R)-1-fluoro-12-(((2R,7aS)-2-fluorotetrahydro-1H-pyrrolizin-7a(5H)-yl)methoxy)-5-methyl-4,5,5a,6,7,8,9,10-octahydro-3,10a,11,13,14-pentaaza-6,9-methanonaphtho[1,8-ab]heptalen-2-yl)benzo[b]thiophene-3-carbonitrile], at GDP-loaded KRAS G12D, the concentration for half-maximal inhibition (IC50) was 0.45 nM. The EC50 with GP2D (KRAS G12D) cells (GP2d, 96 h) came to 2 nM.

As for `Cc1cc(N)nc(-c2c(Br)c3c4c(nc(OC[C@@]56CCCN5C[C@H](F)C6)nc4c2F)N2C[C@H]4CC[C@H](N4)[C@H]2CC3)c1C(F)(F)F` [Example 14, 6-((1S,4R,14aR)-12-bromo-10-fluoro-8-(((2R,7aS)-2-fluorotetrahydro-1H-pyrrolizin-7a(5H)-yl)methoxy)-1,2,3,4,5,13,14,14a-octahydro-1,4-epiminoazepino[1′,2′:1,7]azepino[2,3,4-de]quinazolin-11-yl)-4-methyl-5-(trifluoromethyl)pyridin-2-amine], the IC50 on GDP-loaded KRAS G12D worked out at 0.24 nM. In addition, in the assay on GP2D (KRAS G12D) cells (GP2d, 96 h), the concentration giving a half-maximal response (EC50) was determined as 2.5 nM.

In the case of `C=Cc1c(-c2nc(N)cc(C)c2C(F)(F)F)c(F)c2nc(OC[C@@]34CCCN3C[C@H](F)C4)nc3c2c1CC[C@@H]1[C@@H]2CC[C@H](CN31)N2` [Example 15, 6-((1S,4R,14aR)-10-fluoro-8-(((2R,7aS)-2-fluorotetrahydro-1H-pyrrolizin-7a(5H)-yl)methoxy)-12-vinyl-1,2,3,4,5,13,14,14a-octahydro-1,4-epiminoazepino[1′,2′:1,7]azepino[2,3,4-de]quinazolin-11-yl)-4-methyl-5-(trifluoromethyl)pyridin-2-amine], the IC50 on GDP-loaded KRAS G12D was determined as 0.43 nM. In the assay with GP2D (KRAS G12D) cells (GP2d, 96 h), this compound gave an EC50 of 24 nM.

`CCc1c(-c2nc(N)cc(C)c2C(F)(F)F)c(F)c2nc(OC[C@@]34CCCN3C[C@H](F)C4)nc3c2c1CC[C@@H]1[C@@H]2CC[C@H](CN31)N2` [Example 16, 6-((1S,4R,14aR)-12-ethyl-10-fluoro-8-(((2R,7aS)-2-fluorotetrahydro-1H-pyrrolizin-7a(5H)-yl)methoxy)-1,2,3,4,5,13,14,14a-octahydro-1,4-epiminoazepino[1′,2′:1,7]azepino[2,3,4-de]quinazolin-11-yl)-4-methyl-5-(trifluoromethyl)pyridin-2-amine] had an IC50 on GDP-loaded KRAS G12D of 0.82 nM. Moreover, the EC50 in the assay on GP2D (KRAS G12D) cells (GP2d, 96 h) amounted to 20 nM.

In the case of `Cc1cc(N)nc(-c2nc3c4c(nc(OC[C@@]56CCCN5C[C@H](F)C6)nc4c2F)N2C[C@H]4CC[C@H](N4)[C@@H]2[C@@H](C)C3)c1C(F)(F)F` [Example 17, 6-((5S,5aS,6S,9R)-1-fluoro-12-(((2R,7aS)-2-fluorotetrahydro-1H-pyrrolizin-7a(5H)-yl)methoxy)-5-methyl-4,5,5a,6,7,8,9,10-octahydro-3,10a,11,13,14-pentaaza-6,9-methanonaphtho[1,8-ab]heptalen-2-yl)-4-methyl-5-(trifluoromethyl)pyridin-2-amine], at GDP-loaded KRAS G12D, the half-maximal inhibitory concentration (IC50) came out at 6.1 nM. In the assay with GP2D (KRAS G12D) cells (GP2d, 96 h), this compound had an EC50 of 25 nM.
